Values quoted from earlier work, collected in patent US20240268416A1, “ANIMAL FEED ADDITIVE COMPOSITIONS AND METHODS OF USE” (PMI Nutrition, LLC, priority 2023, published 2024).

Test system: C. elegans
Conditions: C. elegans assay

In the case of urolithins, the “concentration needed to obtain a positive effect on muscle function” value is listed as 50 µM and the “concentration required to trigger the muscle function response” value is listed as 11.4 µg/mL.
